Results from patent US6040335A, “Therapeutics for thrombocytopenia” (Suntory Limited, priority 1995, dated 2000).

Experiments:
Mouse Platelet = Mouse Platelet Increasing Action (platelet count, electrical impedance method); type: in vivo, C57BL/6 mice; settings: every 24 hr
Protocol: The measurement of platelet increasing activity can be implemented by the method described in Ishibashi, T. et al, Blood, 74(4):1241-1244, 1989 or modifications thereof. For example, an animal for platelet measurement such as mouse (e.g. C57BL/6 mouse), rat, dog or monkey is administered intraperitoneally with a test drug as dissolved in ethanolic physiological saline or dimethyl sulfoxide (hereunder sometimes referred to as DMSO) at a suitable concentration. The frequency of administration is usually once or twice a day for 5-10 continuous days; a blood sample is taken from the orbital venous plexus several hours after the final administration and the platelet count is determined. Administration may be performed by any methods including oral, intravenous, intramuscular and subcutaneous routes. The interval of administrations, their frequency and the number of days on which the administration is made are also variable with the drug under test. Platelet count can be determined by an electrical impedance method using a multi-channel automatic platelet counter (e.g., COULTER COUNTER Model JT of Coulter Corporation).
C57BL/6 mice (male, 7-week old) were administered intraperitoneally with the following compounds of the invention in 1% DMSO physiological saline or with 1% DMSO physiological saline alone (control) at 24-hr intervals for 5, 7 or 10 continuous days. Blood samples were collected 72-hr after the final administration in the case of 5-day administration, and 4-hr after the final administration in the case of 7 or 10-day administration, and the platelet count was determined by an electrical impedance method.

C57BL/6 mice = assay: Toxicity Test (intravenous, deaths); type: in vivo; settings: 5 mg/kg intravenous
[1] = 0.1 mg/kg i.p., 5 days, blood 72 hr after final administration
[2] = 1.0 mg/kg i.p., 5 days, blood 72 hr after final administration
[3] = 0.03 mg/kg i.p., 5 days, blood 72 hr after final administration

| SMILES | Platelet count (Mean ± S.E.) (Mouse Platelet; [1]) | Platelet count (Mean ± S.E.) (Mouse Platelet; [2]) | Platelet count (Mean ± S.E.) (Mouse Platelet; [3]) | cases of death (C57BL/6 mice) | Platelet count (Mean ± S.E.) (Mouse Platelet; 0.03 mg/kg i.p., 7 days, blood 4 hr after final administration, control 1070 ± 152) | Platelet count (Mean ± S.E.) (Mouse Platelet; 0.1 mg/kg i.p., 7 days, blood 4 hr after final administration, control 1070 ± 152) | Platelet count (Mean ± S.E.) (Mouse Platelet; 0.1 mg/kg i.p., 10 days, blood 4 hr after final administration, control 985 ± 130) | Platelet count (Mean ± S.E.) (Mouse Platelet; 1.0 mg/kg i.p., 7 days, blood 4 hr after final administration, control 1070 ± 152) | Platelet count (Mean ± S.E.) (Mouse Platelet; 1.0 mg/kg i.p., 10 days, blood 4 hr after final administration, control 985 ± 130) |
| --- | --- | --- | --- | --- | --- | --- | --- | --- | --- |
| CCC1C=CC(=O)OC1/C=C/C(O)(CC[N+](C)(C)C)C(CC(O)/C=C\C=C/C1CCCC(O)C1)OP(=O)(O)O (centres unmarked) [Example 23, 6-[3,6-Dihydroxy-10-(3-hydroxycyclohexyl)-4-(phosphonoxy)-3-(2-trimethylammoniumethyl)-1,7,9-decatrienyl]-5,6-dihydro-5-ethyl-2H-pyran-2-one] | 1545 ± 294 × 10^3 /μl | 1513 ± 425 × 10^3 /μl |  |  |  |  |  |  |  |
| CCC1C=CC(=O)OC1/C=C/C(O)(CCN(CC)CC)C(CC(O)/C=C\C=C/C1CCCC(O)C1)OP(=O)(O)O (centres unmarked) [Example 7, 6-[3-(2-Diethylaminoethyl)-3,6-dihydroxy-10-(3-hydroxycyclohexyl)-4-(phosphonoxy)-1,7,9-decatrienyl]-5,6-dihydro-5-ethyl-2H-pyran-2-one] | 1686 ± 226 × 10^3 /μl | 1408 ± 427 × 10^3 /μl | 1373 ± 76 × 10^3 /μl |  |  |  |  |  |  |
| CCC1C=CC(=O)OC1/C=C/C(O)(CCNC(C)C)C(CC(O)/C=C\C=C/C1CCCC(O)C1)OP(=O)(O)O (centres unmarked) [Example 9, 6-[3,6-Dihydroxy-10-(3-hydroxycyclohexyl)-3-(2-isopropylaminoethyl)-4-(phosphonoxy)-1,7,9-decatrienyl]-5,6-dihydro-5-ethyl-2H-pyran-2-one] | 1818 ± 291 × 10^3 /μl | 1465 ± 244 × 10^3 /μl | 1433 ± 125 × 10^3 /μl |  |  |  |  |  |  |
| CCCCCNCCC(O)(/C=C/C1OC(=O)C=CC1CC)C(CC(O)/C=C\C=C/C1CCCC(O)C1)OP(=O)(O)O (centres unmarked) [Example 12, 6-[3,6-Dihydroxy-10-(3-hydroxycyclohexyl)-3-(2-pentylaminoethyl)-4-(phosphonoxy)-1,7,9-decatrienyl]-5,6-dihydro-5-ethyl-2H-pyran-2-one] | 1623 ± 192 × 10^3 /μl | 1338 ± 236 × 10^3 /μl | 1263 ± 99 × 10^3 /μl |  |  |  |  |  |  |
| CCC1C=CC(=O)OC1/C=C/C(O)(CCN(C)C)C(CC(O)/C=C\C=C/C1CCCC(O)C1)OP(=O)(O)O (centres unmarked) [Example 3, 6-[3,6-Dihydroxy-3-(2-dimethylaminoethyl)-10-(3-hydroxycyclohexyl)-4-(phosphonoxy)-1,7,9-decatrienyl]-5,6-dihydro-5-ethyl-2H-pyran-2-one] |  |  |  | no cases of death | 1417 ± 159 × 10^3 /μl | 1486 ± 314 × 10^3 /μl | 1280 ± 260 × 10^3 /μl | 1532 ± 137 × 10^3 /μl | 1356 ± 156 × 10^3 /μl |
| CCC1C=CC(=O)OC1/C=C/C(O)(CCNC1CCCC1)C(CC(O)/C=C\C=C/C1CCCC(O)C1)OP(=O)(O)O (centres unmarked) [Example 13, 6-[3-(2-Cyclopentylaminoethyl)-3,6-dihydroxy-10-(3-hydroxycyclohexyl)-4-(phosphonoxy)-1,7,9-decatrienyl]-5,6-dihydro-5-ethyl-2H-pyran-2-one] | 1765 ± 291 × 10^3 /μl | 1313 ± 293 × 10^3 /μl | 1490 ± 108 × 10^3 /μl |  |  |  |  |  |  |
| C=CCN(CC=C)CCC(O)(/C=C/C1OC(=O)C=CC1CC)C(CC(O)/C=C\C=C/C1CCCC(O)C1)OP(=O)(O)O (centres unmarked) [Example 25, 6-[3-(2-Diallylaminoethyl)-3,6-dihydroxy-10-(3-hydroxycyclohexyl)-4-(phosphonoxy)-1,7,9-decatrienyl]-5,6-dihydro-5-ethyl-2H-pyran-2-one] | 1506 ± 209 × 10^3 /μl | 1133 ± 170 × 10^3 /μl | 1074 ± 182 × 10^3 /μl |  |  |  |  |  |  |
| CCC1C=CC(=O)OC1/C=C/C(O)(CCN(CCO)CCO)C(CC(O)/C=C\C=C/C1CCCC(O)C1)OP(=O)(O)O (centres unmarked) [Example 20, 6-[3-(2-Diethanolaminoethyl)-3,6-dihydroxy-10-(3-hydroxycyclohexyl)-4-(phosphonoxy)-1,7,9-decatrienyl]-5,6-dihydro-5-ethyl-2H-pyran-2-one] | 1325 ± 104 × 10^3 /μl | 1498 ± 192 × 10^3 /μl | 1154 ± 138 × 10^3 /μl |  |  |  |  |  |  |
